Columns and labels:
[1] = test system: primary cultured rat hepatocytes; experiment: In vitro cytotoxicity in primary cultured rat hepatocytes; type: cell-based; conditions: 24 h treatment, cell morphology and LDH leakage, highest concentration 300 μM; for LCC (lowest cytotoxic concentration): "300 s" = only slight cytotoxicity at the highest test concentration
Description: In Vitro Cytotoxicity in Primary Cultured Rat Hepatocytes
Adult male Wistar rats were narcotized with sodium pentobarbital and hepatocytes were isolated according to a standard procedure, i.e. by in situ perfusion of the liver with a collagenase solution. The viability of the purified hepatocytes, checked by the trypan blue dye exclusion method was greater than 85%. The isolated hepatocytes were resuspended in standard Williams Medium E, without phenol red, supplemented (WME supp.) with transferrin (100 μg/ml), triiodothyronine (10 μg/ml), gentamicin (50 μg/ml), hydrocortison hemisuccinate (13.36 μg/ml), glucagon (5 μg/ml), HEPES (10 mM), inosin (10 μ/ml), insulin (10 μg/ml), streptomycin (100 μg/ml) and penicillin (100 U/ml) and 10% fetal bovine serum (FBS). The cells were plated in collagen-coated 24-well plates at an initial density of 2×10^5 cells/well. After 4 h for attachment to the culture-plates, the medium was aspirated and replaced by fresh WME supp. without FBS containing the test compounds and incubated for 24 h at 37° C. in a […] and 5% CO2 atmosphere. For each experiment, i.e., with each batch of hepatocytes, treatments with the test compounds were done in quadriplicate. Quadriplicate controls (treatment with the vehicle only) were also present on each culture plate.
Stock solutions of the test compounds were prepared in DMSO a few hours before treatment start. Appropriate dilutions of these stock solutions were added to the culture media just prior to the treatment in order to give final concentrations of 0, 3, 10, 30, 100 and 300 μM. The final concentration of the vehicle DMSO was 1% (v/v).
The morphology of the hepatocyte monolayers was monitored by light microscopy after 24 hours of exposure to the test compounds. Treatment related effects are described according to the following grading: • 0 No morphological alterations observed upon treatment when compared to the control cultures • 1-3 Treatment resulting in any morphological changes, e.g. intracellular granulation, vacuolization or cell death. Depending on the severity, these changes were regarded as slight (1), moderate (2) or strong (3). • K Treatment resulting in 100% dead cells and/or the complete detachment of the monolayer yielding a clear cell-free dish.
After 24 h treatment of the hepatocyte cultures, aliquots of culture medium were carefully collected and used for the analysis of lactate dehydrogenase (LDH) activity by spectrophotometry using the LDH cytotoxicity detection kit from Clontech (cat No. 630117, Mountain View, Calif., USA). For each experiment, additional cultures were used for the determination of total intracellular LDH activity at treatment start. For this purpose, 4 wells of cell culture per experiment were washed with cold saline before treatment start, sonicated in fresh medium and the homogenate was analyzed for total LDH activity. Enzyme activities in the culture media were assessed and expressed as percentage of the total activity present in the cultured hepatocytes at the beginning of the treatments.
The lowest cytotoxic concentration (LCC) and the no effect concentration (NoEC) are given for each compound, based on cell morphology and LDH leakage after 24 h treatment. LCC is defined as the lowest concentration of the test compound leading to a clear effect on the cultured rat hepatocytes (morphology grading 2 or 2-fold increase in LDH leakage). A LCC value of >300 μM indicates the absence of effect on both endpoints at the highest test concentration of 300 μM. […] NoEC is defined as the highest test concentration of the compound which was without an effect on the cultured rat hepatocytes (morphology and LDH leakage). • 3 . Results

hCRTH2 receptor [2] = biological target: T1, hCRTH2 receptor (Homo sapiens, UniProt Q9Y5Y4); experiment: hCRTH2 receptor membranes radioligand displacement assay (3H-PGD2); type: binding; conditions: HEK293-hCRTH2 membranes, 3H-PGD2 2.5 nM, 0.1% BSA
T1 construct: expressed in transfected cells; host or cells: HEK293 (recombinant HEK293-hCRTH2), membrane fragments
T1 sequence (Q9Y5Y4 1-395): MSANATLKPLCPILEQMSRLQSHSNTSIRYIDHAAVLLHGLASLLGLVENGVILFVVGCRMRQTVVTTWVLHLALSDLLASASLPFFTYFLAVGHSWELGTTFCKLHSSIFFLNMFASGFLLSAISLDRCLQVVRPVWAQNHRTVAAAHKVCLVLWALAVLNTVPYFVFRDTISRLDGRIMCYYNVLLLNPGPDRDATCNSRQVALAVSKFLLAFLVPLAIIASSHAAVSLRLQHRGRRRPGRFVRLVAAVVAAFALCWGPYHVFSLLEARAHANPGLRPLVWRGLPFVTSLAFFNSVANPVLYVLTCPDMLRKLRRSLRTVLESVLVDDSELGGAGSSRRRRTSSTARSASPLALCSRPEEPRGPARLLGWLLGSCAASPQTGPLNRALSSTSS
Description: Preparation of hCRTH2 Receptor Membranes and Radioligand Displacement Assay:
(§1) First, recombinant HEK293-hCRTH2 cells were detached from culture plates into 5 ml buffer A/plate (Buffer A: 5 mM Tris, 1 mM MgCl2-6H2O pH=7.4) using a rubber policeman. Cells were then transferred into centrifugation tubes and centrifuged for 5 min at 400 g. The cell pellet was resuspended in the same buffer and tubes were frozen at 80° C. Cells were thawed and membrane fragments were generated by homogenization using a polytron homogenizer (30 seconds). The membrane fragments were then centrifuged at 3000 g for 20 minutes and resuspended in buffer C (Buffer C: 75 mM Tris, 25 mM MgCl2, 250 mM Saccharose pH 7.4). Aliquots of membrane fragements were stored at −20° C.
Binding assay was performed in a final assay volume of 250 μl. First, 25 μl of test compound, previously diluted in Binding-Buffer (Binding-Buffer: 50 mM Tris-Base, 100 mM NaCl, 1 mM EDTA, 0.1% BSA (protease free), 0.01% NaN3, 10 mM MnCl2 pH 7.0) was placed into each well. After addition of 75 μl Binding-Buffer, 50 μl of the radioligand ^3H-PGD2 (at 2.5 nM (220.000 dpm/well) from ANAWA ART0662) was added to each well. Binding assay was started by addition of 100 μl CRTH2 membrane fragments, reaching a final concentration of 20 μg/well. For non-specific binding, PGD2 was added to the reaction mixture to […] final concentration. This assay mix was incubated for 90 minutes at room temperature and then filtered through a GF/C filter 96-well plate which was pre-soaked for 3 hours in 0.5% polyethyleneimine (PEI). The filter-wells were washed three times with ice cold Binding-Buffer. Then, 40 μl of Microscint-40 (Packard) was added to each well and the retained radioactivity quantified in a Topcount (Packard).

hCRTH2 receptor [3] = biological target: T1, hCRTH2 receptor; experiment: Radioligand displacement assay in presence of human serum albumin (HSA); conditions: Binding buffer with 0.5% HSA instead of 0.1% BSA, 3H-PGD2 2.5 nM
Description: as §1
Binding assay was performed in a final assay volume of 250 μl. […] After addition of 75 μl Binding-Buffer, 50 μl of the radioligand ^3H-PGD2 (at 2.5 nM (220.000 dpm/well) from ANAWA ART0662) was added to each well. Binding assay was started by addition of 100 μl CRTH2 membrane fragments, reaching a final concentration of 20 μg/well. For non-specific binding, PGD2 was added to the reaction mixture to […] final concentration. […] Then, 40 μl of Microscint-40 (Packard) was added to each well and the retained radioactivity quantified in a Topcount (Packard). […]

[4] = test system: eosinophils activated by PGD2; experiment: Eosinophil shape change assay with human plasma; type: cell-based; conditions: 50% human plasma, PGD2 100 nM, shape change by forward-scatter
Description: Eosinophil Shape Change Assay with human Plasma
After obtaining informed consent, blood samples were drawn by venipuncture according to the protocol approved by the ethics committee of Basel, Switzerland. Polymorphonuclear leukocytes (containing eosinophils, basophils and neutrophils) were isolated using the Polymorphprep™ method (Axis-Shield). In brief, anticoagulated whole blood was layered onto a Polymorphprep gradient (density 1.113 g/ml) and centrifuged at 500 g for 30 min. The polymorphonuclear cell fraction was harvested and depleted for erythrocytes by hypotonic saline lysis. […]
Immediately after fixation with paraformaldehyde, the samples were analyzed by FACSCanto flow cytometer (BD Biosciences) and target cells were identified by their forward-scatter (FSC) and side-scatter (SSC) characteristics. […] Shape change responses, indicative of eosinophil activation, were quantified as the percent of cells with an increased forward-scatter.

Row | SMILES | NoEC (no effect concentration) [1] [µM] | LCC (lowest cytotoxic concentration) [1] | IC50 (hCRTH2 receptor [2]) [nM] | IC50 (hCRTH2 receptor [3]) [nM] | IC50 [4] [nM]
1 | CN(c1nc2ccc(Cl)cc2o1)[C@H]1CCc2c(c3cc(F)ccc3n2CC(=O)O)C1 | 30 | 100^ μM | – | – | –
2 | CN(c1nc2ccc(Cl)cc2o1)C1CCc2c(c3ncccc3n2CC(=O)O)C1 (stereo not shown) [Example 1, 2-(8-((6-chlorobenzo[d]oxazol-2-yl)(methyl)amino)-6,7,8,9-tetrahydro-5H-pyrido[3,2-b]indol-5-yl)acetic acid] | – | – | 11 | 31 | 27
3 | CN(c1nc2cc(Cl)ccc2o1)C1CCc2c(c3ncccc3n2CC(=O)O)C1 (stereo not shown) [Example 2, 2-(8-((5-chlorobenzo[d]oxazol-2-yl)(methyl)amino)-6,7,8,9-tetrahydro-5H-pyrido[3,2-b]indol-5-yl)acetic acid] | – | – | 35 | – | –
4 | CN(c1nc2cc(F)ccc2o1)C1CCc2c(c3ncccc3n2CC(=O)O)C1 (stereo not shown) [Example 3, 2-(8-((5-fluorobenzo[d]oxazol-2-yl)(methyl)amino)-6,7,8,9-tetrahydro-5H-pyrido[3,2-b]indol-5-yl)acetic acid] | – | – | 31 | – | –
5 | CN(c1nc2ccc(Cl)cc2o1)C1CCc2c(c3ncccc3n2CC(=O)O)C1 (stereo not shown) [drawing 11] | >300 | >300^ μM | – | – | –
6 | CN(c1nc2cc(Cl)ccc2o1)C1CCc2c(c3ncccc3n2CC(=O)O)C1 (stereo not shown) [drawing 12] | 100 | 300 s | – | – | –
7 | CN(c1nc2cc(F)ccc2o1)C1CCc2c(c3ncccc3n2CC(=O)O)C1 (stereo not shown) [drawing 13] | 100 | 300 s | – | – | –

Source: US9850241B2, “Azaindole acetic acid derivatives and their use as prostaglandin D2 receptor modulators” (IDORSIA PHARMACEUTICALS LTD, priority 2014, dated 2017)
